Earlier results in patent US20130184354A1, “Silicone and Hylauronic Acid (HLA) Delivery Systems for Products by Sustainable Processes for Medical Uses Including Wound Management” (priority 2012, published 2013).

Legend:
[1] = compared with THC
CB2 receptors = CB2 receptors (Homo sapiens, UniProt P34972)
CB2 receptors, sequence (P34972 whole entry): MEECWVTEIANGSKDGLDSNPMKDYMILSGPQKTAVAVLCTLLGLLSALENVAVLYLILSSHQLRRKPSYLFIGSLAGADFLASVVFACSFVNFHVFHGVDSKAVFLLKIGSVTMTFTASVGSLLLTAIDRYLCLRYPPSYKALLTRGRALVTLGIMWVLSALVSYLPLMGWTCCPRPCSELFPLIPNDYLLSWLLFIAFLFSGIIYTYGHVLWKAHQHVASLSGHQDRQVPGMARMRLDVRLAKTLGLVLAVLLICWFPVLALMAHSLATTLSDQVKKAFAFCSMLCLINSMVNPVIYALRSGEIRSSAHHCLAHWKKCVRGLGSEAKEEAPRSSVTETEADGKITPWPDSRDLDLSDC

Row | Compound | potency relative to THC [1] | affinity for CB2 receptors (CB2 receptors)
1 | CCCCCCC(C)(C)c1cc(O)c2c(c1)OC(C)(C)[C@@H]1CC=C(CO)C[C@@H]21 [HU-210] | about 100 times | –
2 | C=C(C)[C@@H]1CCC(C)=C[C@H]1c1c(O)cc(CCCCC)cc1O [Cannabidiol] | – | no affinity
